Test results reported in patent publication US20240360215A1, “ANTI-CD19 ANTIBODY IN THE TREATMENT OF CNS LYMPHOMA” (The Regents of the University of California, priority 2023, published 2024).
“Also recorded” adds a separate entry of the source.

Tests used:
Type in all cases: in vivo, human
secondary CNS lymphoma = assay: illustrative treatment of first patient (large-B cell lymphoma, CNS relapse), MRI follow-up; conditions: for severe treatment-related toxicities requiring inpatient management: earlier therapies
Description: Staging documented concomitant right adrenal involvement. Treatment at an outside institution consisted of six cycles of high-dose methotrexate (HD-MTX) intercalated with rituximab, cyclophosphamide, adriamycin, vincristine, prednisone (R-CHOP) plus intrathecal cytarabine, also six cycles. At 7 months there was multifocal CNS progression and the patient was transferred to a tertiary care center where they received eight cycles of HD-MTX, six doses of temozolomide plus rituximab (MTR), consolidation with etoposide-ara-C (Soussain et al, J. Clin. Oncol 19:[…]; Rubenstein et al, J. Clin Oncol. 31:3061-8, 2013) followed by autologous stem cell transplantation and lenalidomide maintenance. However, at 6 months after transplantation, multifocal CNS progression was again evident on magnetic resonance imaging (MRI). This second relapse was treated with repeat HD-MTX (eight cycles) plus rituximab followed by focal irradiation to a refractory lesion in the right postcentral gyrus, followed by pomalidomide maintenance, resulting in a CNS response duration of nearly 2 years. A third isolated CNS relapse manifested by new multifocal lesions with mild left-to-right midline shift.
Ibrutinib was therefore discontinued and the patient continued on lenalidomide (10 mg/day), now co-administered with intravenous tafasitamab (12 mg/kg), without dexamethasone, following the schedule of the L-MIND study. […] The patient continues twice monthly infusion of tafasitamab, plus lenalidomide days 1-21, and remains in radiographic remission, both in brain and systemically, at 22 months since starting this combination.

relapsed CNS lymphoma = assay: phase I trial of tafasitamab plus lenalidomide in relapsed CNS lymphoma (NCT05351593); conditions: Patient 2; lenalidomide 15 mg/day, off study
Experimental: This patient's disease previously progressed on lenalidomide monotherapy at a higher dose of 15 mg/day.
The role of tafasitamab in these cases is evident based on prior resistance to lenalidomide, pomalidomide and rituximab.
Three were treated at the 10 mg lenalidomide dose level and one at the 15 mg lenalidomide dose level. […] The longest response duration was six months.
Illustrative responses of patient 2 in this study are depicted in FIG. 1.

primary CNS lymphoma = assay: illustrative treatment of second patient (multifocal primary CNS lymphoma, large B-cell type), MRI follow-up
Experimental: At first relapse they were re-treated with MTR followed by lenalidomide maintenance (5 mg/day) with intermittent high-dose methotrexate/rituximab every 4 months, resulting in sustained disease control on MRI for 3 years. At progression on lenalidomide they were re-challenged with MTR but immediately experienced growth of new lesions in the left frontal lobe, centrum semiovale and splenium of the corpus callosum. […] However, the corpus callosal lesion was resistant. […] (For image, see, Rauschecker et al., Br J Haematol, 201:154-157, first published January 23 2023).

| SMILES | severe treatment-related toxicities requiring inpatient management (secondary CNS lymphoma) | CNS response duration (secondary CNS lymphoma; pomalidomide maintenance after repeat HD-MTX plus rituximab and focal irradiation) | time to multifocal CNS progression on MRI after transplantation (secondary CNS lymphoma; lenalidomide maintenance after autologous stem cell transplantation) | disease response to earlier lenalidomide monotherapy (relapsed CNS lymphoma) | sustained disease control on MRI (primary CNS lymphoma; first relapse, MTR then lenalidomide maintenance 5 mg/day with intermittent high-dose methotrexate/rituximab every 4 months) | response duration (primary CNS lymphoma; lenalidomide maintenance 5 mg/day, days 1-21, after complete response with MTR) |
| --- | --- | --- | --- | --- | --- | --- |
| Nc1cccc2c1C(=O)N(C1CCC(=O)NC1=O)C2=O (stereo not shown) [pomalidomide] | two independent episodes of pneumonia, associated with respiratory syncytial virus and later, aspergillosis | ~2 years | – | – | – | – |
| Nc1cccc2c1CN(C1CCC(=O)NC1=O)C2=O (stereo not shown) [lenalidomide] | – | – | 6 months | progressed; also recorded: refractory | 3 years | 17 months |
| C=CC(=O)N1CCC[C@@H](n2nc(-c3ccc(Oc4ccccc4)cc3)c3c(N)ncnc32)C1 [ibrutinib] | pancytopenia, gastrointestinal bleeding, and necrotizing gangrenous cholecystitis | – | – | – | – | – |
